Test results published in ChEMBL document CHEMBL4339212, “Novel 7-formyl-naphthyridyl-ureas derivatives as potential selective FGFR4 inhibitors: Design, synthesis, and biological activity studies” (Bioorg Med Chem, 2019).

How the values were obtained:
[1] = biological target: Fibroblast growth factor receptor 1 (Homo sapiens, UniProt P11362); assay: Inhibition of FGFR1 (unknown origin) incubated for 60 mins by caliper microfluidic mobility shift technology based assay
[2] = Mean residence time in Sprague-Dawley rat at 5 mg/kg, ig measured after 5 mins to 24 hrs by LC-MS analysis; format: ADME, organism-based; conditions: in vivo, po
[3] = Cmax in Sprague-Dawley rat at 5 mg/kg, ig measured after 5 mins to 24 hrs by LC-MS analysis; format: ADME, organism-based; parameters: dose 5 mg/kg, route […]; conditions: in vivo, po
Huh-7 [4] = assay: cells; conditions: Homo sapiens, Huh-7, 72 h
[5] = AUC in Sprague-Dawley rat at 5 mg/kg, ig measured after 5 mins to 24 hrs by LC-MS analysis; format: ADME, organism-based; parameters: dose 5 mg/kg, time 0.083-24 hr, route […]; conditions: in vivo, po
[6] = Half life in Sprague-Dawley rat at 5 mg/kg, ig measured after 5 mins to 24 hrs by LC-MS analysis; format: ADME, organism-based; conditions: in vivo, po
Hep 3B2 [7] = assay: cells; conditions: Homo sapiens, Hep3B, 72 h
SK-HEP1 = assay: Antiproliferative activity against human SKHEP1 cells without FGFR4 gene amplification assessed as inhibition of cell proliferation incubated for 72 hrs by CellTiter-Glo method; format: functional, cell-based; conditions: SK-HEP1, 72 h
Huh-7 [8] = assay: Antitumor activity against human HuH7 cells xenografted in nude BALB/c mouse assessed as inhibition of tumor growth at 30 mg/kg bid for 14 days and measured twice per week relative to untreated control; format: functional; conditions: Huh-7, 336 h, read-out: TGI
Hep 3B2 [9] = assay: Antitumor activity against human Hep3B cells xenografted in nude BALB/c mouse assessed as inhibition of tumor growth at 10 mg/kg bid for 14 days and measured twice per week relative to untreated control; format: functional; conditions: 336 h, read-out: TGI

Chain of Fibroblast growth factor receptor 1 (P11362 whole entry): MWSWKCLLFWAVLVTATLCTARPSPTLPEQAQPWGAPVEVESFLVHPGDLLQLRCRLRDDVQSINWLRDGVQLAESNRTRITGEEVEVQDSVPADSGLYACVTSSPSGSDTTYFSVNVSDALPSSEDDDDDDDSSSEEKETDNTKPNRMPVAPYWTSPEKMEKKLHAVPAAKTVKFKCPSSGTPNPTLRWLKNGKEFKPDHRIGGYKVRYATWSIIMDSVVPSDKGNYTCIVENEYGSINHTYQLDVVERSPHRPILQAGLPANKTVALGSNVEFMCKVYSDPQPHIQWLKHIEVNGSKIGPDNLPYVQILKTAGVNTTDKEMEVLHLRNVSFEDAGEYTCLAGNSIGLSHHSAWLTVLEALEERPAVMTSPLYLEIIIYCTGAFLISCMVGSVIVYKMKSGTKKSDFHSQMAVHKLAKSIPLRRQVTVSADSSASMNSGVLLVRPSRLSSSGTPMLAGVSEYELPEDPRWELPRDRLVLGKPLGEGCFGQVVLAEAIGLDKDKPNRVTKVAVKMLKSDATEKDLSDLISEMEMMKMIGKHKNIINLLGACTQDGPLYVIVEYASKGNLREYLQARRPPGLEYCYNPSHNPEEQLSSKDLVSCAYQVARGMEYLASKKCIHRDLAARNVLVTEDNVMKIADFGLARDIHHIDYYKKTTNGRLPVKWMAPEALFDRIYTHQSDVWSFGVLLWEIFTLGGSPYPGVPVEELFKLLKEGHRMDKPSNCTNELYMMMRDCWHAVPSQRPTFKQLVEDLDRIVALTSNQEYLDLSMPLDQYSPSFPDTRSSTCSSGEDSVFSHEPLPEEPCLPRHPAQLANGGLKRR

| Structure (SMILES) | IC50 [1] [nM] | MRT [2] [h] | Cmax [3] [ng/mL] | IC50 (Huh-7 [4]) [nM] | AUC [5] [ng·h/mL] | half-life [6] [h] | IC50 (Hep 3B2 [7]) [nM] | IC50 (SK-HEP1) [nM] | inhibition in vivo at 30 mg/kg (Huh-7 [8]) [%] | inhibition in vivo at 10 mg/kg (Hep 3B2 [9]) [%] |
| --- | --- | --- | --- | --- | --- | --- | --- | --- | --- | --- |
| CO[C@H]1CCN(c2cc(NC(=O)N3CCCc4cc(CN5CCOCC5=O)c(C=O)nc43)ncc2C#N)C1 | > 10000 | 2.6 | 3360 | 27.5 | 14700 | 1.2 | 24.9 | > 10000 | – | – |
| COc1ccncc1Nc1cc(NC(=O)N2CCCc3cc(CN4CCOCC4=O)c(C=O)nc32)ncc1C#N | > 10000 | – | – | 20.7 | – | – | 69 | > 10000 | – | – |
| COC[C@@H](C)Oc1cc(NC(=O)N2CCCc3cc(CN4CCCCOC4=O)c(C=O)nc32)ncc1C#N | > 10000 | – | – | 4.6 | – | – | 2.2 | > 10000 | – | – |
| COC[C@H](C)Nc1cc(NC(=O)N2CCCc3cc(CN4CC[C@H](OC)C4=O)c(C=O)nc32)ncc1C#N | > 10000 | – | – | 40.5 | – | – | 13.6 | > 10000 | – | – |
| CO[C@H]1CCOC[C@@H]1Oc1cc(NC(=O)N2CCCc3cc(CN4CCOCC4=O)c(C=O)nc32)ncc1C#N | > 10000 | – | – | 40.8 | – | – | 10.9 | > 10000 | – | – |
| CN(C)C1CCN(c2cc(NC(=O)N3CCCc4cc(CN5CCOCC5=O)c(C=O)nc43)ncc2C#N)C1 (stereo not drawn) | > 10000 | – | – | 297 | – | – | 93.8 | > 10000 | – | – |
| CO[C@@H]1CCN(c2cc(NC(=O)N3CCCc4cc(CN5CCOC5=O)c(C=O)nc43)ncc2C#N)C1 | > 10000 | – | – | 10.2 | – | – | 9.9 | > 10000 | – | – |
| CO[C@H]1CCN(c2cc(NC(=O)N3CCCc4cc(CN5C(=O)OC[C@@H]5C)c(C=O)nc43)ncc2C#N)C1 | > 10000 | – | – | 34.6 | – | – | 39.3 | > 10000 | – | – |
| COC[C@@H](C)Oc1cc(NC(=O)N2CCCc3cc(CN4CCOCC4=O)c(C=O)nc32)ncc1C#N | > 10000 | – | – | 7.8 | – | – | 2.9 | > 10000 | – | – |
| COCCOc1cc(NC(=O)N2CCCc3cc(CN4CCOCC4=O)c(C=O)nc32)ncc1C#N | > 10000 | – | – | 51.8 | – | – | 27.7 | > 10000 | – | – |
| N#Cc1cnc(NC(=O)N2CCCc3cc(CN4CCCCOC4=O)c(C=O)nc32)cc1N[C@@H]1CCOC1 | > 10000 | – | – | 4.9 | – | – | 2.3 | > 10000 | – | – |
| COCCNc1cc(NC(=O)N2CCCc3cc(CN4CC[C@@H](OC)C4=O)c(C=O)nc32)ncc1C#N | > 10000 | – | – | 8.3 | 12300 | – | 1.9 | > 10000 | – | – |
| N#Cc1cnc(NC(=O)N2CCCc3cc(CN4CCOCC4=O)c(C=O)nc32)cc1S[C@H]1CCOC1 | > 10000 | – | – | 36.1 | 1950 | – | 14.5 | > 10000 | – | – |
| CO[C@H]1CCN(c2cc(NC(=O)N3CCCc4cc(CN5CCOC5=O)c(C=O)nc43)ncc2C#N)C1 | > 10000 | – | – | 29.6 | – | – | 38.7 | > 10000 | – | – |
| CO[C@@H]1CCN(c2cc(NC(=O)N3CCCc4cc(CN5C(=O)OC[C@@H]5C)c(C=O)nc43)ncc2C#N)C1 | > 10000 | – | – | 11.8 | – | – | 13.3 | > 10000 | – | – |
| COCCNc1cc(NC(=O)N2CCCc3cc(CN4CCOCC4=O)c(C=O)nc32)ncc1C#N | > 10000 | – | – | 17.3 | – | – | 8.9 | > 10000 | – | – |
| N#Cc1cnc(NC(=O)N2CCCc3cc(CN4CCCCOC4=O)c(C=O)nc32)cc1N[C@H]1CCOC1 | > 10000 | – | – | 7.2 | – | – | 3.7 | > 10000 | – | – |
| COCCNc1cc(NC(=O)N2CCCc3cc(CN4CC[C@H](OC)C4=O)c(C=O)nc32)ncc1C#N | > 10000 | – | – | 9 | 11300 | – | 2.3 | > 10000 | – | – |
| COCCSc1cc(NC(=O)N2CCCc3cc(CN4CCOCC4=O)c(C=O)nc32)ncc1C#N | > 10000 | – | – | 32.2 | – | – | 20.8 | > 10000 | – | – |
| CO[C@@H]1CCC[C@H]1Nc1cc(NC(=O)N2CCCc3cc(CN4CCOCC4=O)c(C=O)nc32)ncc1C#N | > 10000 | – | – | 2.7 | – | – | 1 | > 10000 | – | – |
| CO[C@@H]1CCN(Cc2cc3c(nc2C=O)N(C(=O)Nc2cc(N[C@@H]4CCOC4)c(C#N)cn2)CCC3)C1=O | > 10000 | – | – | 5.4 | – | – | 1.8 | > 10000 | – | – |
| COc1ccccc1Oc1cc(NC(=O)N2CCCc3cc(CN4CCOCC4=O)c(C=O)nc32)ncc1C#N | > 10000 | – | – | 69 | – | – | 46 | > 10000 | – | – |
| N#Cc1cnc(NC(=O)N2CCCc3cc(CN4CCOCC4=O)c(C=O)nc32)cc1S[C@@H]1CCOC1 | > 10000 | – | – | 50.1 | 6780 | – | 22.7 | > 10000 | – | – |
| COCCNc1cc(NC(=O)N2CCCc3cc(CN4CCN(C)CC4=O)c(C=O)nc32)ncc1C#N [FGF401] | – | – | – | 16.3 | – | – | 8.8 | – | 52.5 | 85.9 |
| COC[C@@H]1CCCN1c1cc(NC(=O)N2CCCc3cc(CN4CCOCC4=O)c(C=O)nc32)ncc1C#N | > 10000 | – | – | 65.3 | – | – | 22.9 | > 10000 | – | – |
